Laboratory results as given in patent US10150755B2, “ASK1 inhibitor compounds and uses thereof” (Seal Rock Therapeutics, Inc., priority 2017, dated 2018).

Biological target: ASK1 (Homo sapiens (Human), UniProt Q99683)
Test: ASK1 Kinase Assay (Promega ASK1 Kinase Enzyme System, ADP-Glo)
Format: biochemical
Conditions: enzyme 50 nM, ATP 10 μM
Protocol: The ASK1 enzymatic assay was run following Promega ASK1 Kinase Enzyme System (Cat #V3881). The kit provides the protocol, enzymes and all reagents necessary to run an assay. Firstly, the compounds, enzyme, substrate and ATP were diluted in provided assay buffer. The final concentration of the enzyme was 50 nM, substrate (Myelin basic protein) 1 μg/ml and ATP 10 μM. The compound and the enzyme were pre-incubated in a 384 well white solid bottom plate (Greiner, Cat#784075) for 10 minutes. After incubation, the substrate and ATP were added and incubated for further 60 minutes. After 60 minutes, ADP-Glo™ was added and plate was incubated for another 40 minutes. After 40 minutes, Kinase Detection Reagent was added and the plate was incubated for 45 minutes. After 45 minutes, plate was read on Perkin Elmer EnVision using luminescence read (0.5 seconds/well).

Chain of ASK1 (Q99683 649-946 limits assumed): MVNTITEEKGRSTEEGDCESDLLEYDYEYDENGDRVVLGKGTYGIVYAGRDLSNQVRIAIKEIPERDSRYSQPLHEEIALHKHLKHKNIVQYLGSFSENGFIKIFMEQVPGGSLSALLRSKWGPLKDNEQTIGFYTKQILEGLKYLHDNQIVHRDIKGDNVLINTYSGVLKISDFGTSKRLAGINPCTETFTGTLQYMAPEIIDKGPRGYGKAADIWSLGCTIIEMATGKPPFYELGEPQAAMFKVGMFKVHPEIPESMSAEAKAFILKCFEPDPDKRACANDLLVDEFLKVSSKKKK

| Compound | IC50 |
| --- | --- |
| Cn1c2ccccc2c(=O)n1-c1cccc(-c2nncn2C2CC2)n1 [Compound 88, 2-(6-(4-cyclopropyl-4H-1,2,4-triazol-3-yl)pyridin-2-yl)-1-methyl-1,2-dihydro-3H-indazol-3-one] | 1000 to 10000 nM |
| O=C1c2cc(-c3ccncc3)ccc2CN1c1cccc(-c2nncn2C2CC2)n1 [Compound 50, 2-(6-(4-cyclopropyl-4H-1,2,4-triazol-3-yl)pyridin-2-yl)-6-(pyridin-4-yl)isoindolin-1-one] | < 200 nM |
| CSC1CCN(C(=O)c2ccc3c(c2)CN(c2cccc(-c4nncn4C4CC4)n2)C3=O)CC1 [Compound 25, 2-(6-(4-cyclopropyl-4H-1,2,4-triazol-3-yl)pyridin-2-yl)-5-(4-(methylthio)piperidine-1-carbonyl)isoindolin-1-one] | < 200 nM |
| Cn1cncc1-c1ccc2c(c1)C(=O)N(c1cccc(-c3nncn3C3CC3)n1)C2 [Compound 36, 2-(6-(4-cyclopropyl-4H-1,2,4-triazol-3-yl)pyridin-2-yl)-6-(1-methyl-1H-imidazol-5-yl)isoindolin-1-one] | < 200 nM |
| CC(C)n1cnnc1-c1cccc(N2Cc3ccc(-c4cccnc4)cc3C2=O)n1 [Compound 85, 2-(6-(4-isopropyl-4H-1,2,4-triazol-3-yl)pyridin-2-yl)-6-(pyridin-3-yl)isoindolin-1-one] | < 200 nM |
| O=C1c2cc(-c3cnccc3F)ccc2CN1c1cccc(-c2nncn2C2CC2)n1 [Compound 48, 2-(6-(4-cyclopropyl-4H-1,2,4-triazol-3-yl)pyridin-2-yl)-6-(4-fluoropyridin-3-yl)isoindolin-1-one] | < 200 nM |
| O=C1c2cc(-c3cnc(C4CC4)nc3)ccc2CN1c1cccc(-c2nncn2C2CC2)n1 [Compound 56, 2-(6-(4-cyclopropyl-4H-1,2,4-triazol-3-yl)pyridin-2-yl)-6-(2-cyclopropylpyrimidin-5-yl)isoindolin-1-one] | < 200 nM |
| O=C1c2cc(-c3cnn(C4CC4)c3)ccc2CN1c1cccc(-c2nncn2C2CC2)n1 [Compound 47, 6-(1-cyclopropyl-1H-pyrazol-4-yl)-2-(6-(4-cyclopropyl-4H-1,2,4-triazol-3-yl)pyridin-2-yl)isoindolin-1-one] | < 200 nM |
| O=C1c2cc(-c3cnccc3Cl)ccc2CN1c1cccc(-c2nncn2C2CC2)n1 [Compound 49, 6-(4-chloropyridin-3-yl)-2-(6-(4-cyclopropyl-4H-1,2,4-triazol-3-yl)pyridin-2-yl)isoindolin-1-one] | < 200 nM |
| O=C1c2cc(-c3cncc(F)c3)ccc2CN1c1cccc(-c2nncn2C2CC2)n1 [Compound 55, 2-(6-(4-cyclopropyl-4H-1,2,4-triazol-3-yl)pyridin-2-yl)-6-(5-fluoropyridin-3-yl)isoindolin-1-one] | 200 to 1000 nM |
| CCNc1ccc2c(c1)CN(c1cccc(-c3nncn3C3CC3)n1)C2=O [Compound 35, 2-(6-(4-cyclopropyl-4H-1,2,4-triazol-3-yl)pyridin-2-yl)-5-(ethylamino)isoindolin-1-one] | < 200 nM |
| O=C(c1ccc2c(c1)CN(c1cccc(-c3nncn3C3CC3)n1)C2=O)N1CCC1 [Compound 19, 5-(azetidine-1-carbonyl)-2-(6-(4-cyclopropyl-4H-1,2,4-triazol-3-yl)pyridin-2-yl)isoindolin-1-one] | < 200 nM |
| O=C1c2ccc(NC(=O)C3(c4ccccc4)CC3)cc2CN1c1cccc(-c2nncn2C2CC2)n1 [Compound 33, N-(2-(6-(4-Cyclopropyl-4H-1,2,4-triazol-3-yl)pyridin-2-yl)-1-oxoisoindolin-5-yl)-1-phenylcyclopropane-1-carboxamide] | 200 to 1000 nM |
| CNC(=O)c1ccc2c(c1)CN(c1cccc(-c3nncn3C3CC3)n1)C2=O [Compound 3, 2-(6-(4-cyclopropyl-4H-1,2,4-triazol-3-yl)pyridin-2-yl)-N-methyl-1-oxoisoindoline-5-carboxamide] | < 200 nM |
| O=C1c2ccccc2CN1c1cccc(-c2nnc3n2[C@@H](CO)CC3)n1 [Compound 79, (R)-2-(6-(5-(hydroxymethyl)-6,7-dihydro-5H-pyrrolo[2,1-c][1,2,4]triazol-3-yl)pyridin-2-yl)isoindolin-1-one] | < 200 nM |
| O=C(c1cc2c(cc1Cl)C(=O)N(c1cccc(-c3nncn3C3CC3)n1)C2)N1CCOCC1 [Compound 26, 6-chloro-2-(6-(4-cyclopropyl-4H-1,2,4-triazol-3-yl)pyridin-2-yl)-5-(morpholine-4-carbonyl)isoindolin-1-one] | < 200 nM |
| CO[C@@H]1CCN(C(=O)c2ccc3c(c2)CN(c2cccc(-c4nncn4C4CC4)n2)C3=O)C1 [Compound 22, (R)-2-(6-(4-cyclopropyl-4H-1,2,4-triazol-3-yl)pyridin-2-yl)-5-(3-methoxypyrrolidine-1-carbonyl)isoindolin-1-one] | < 200 nM |
| O=C(c1ccc2c(c1)CN(c1cccc(-c3nncn3C3CC3)n1)C2=O)N1C[C@H]2CC[C@@H](C1)O2 [Compound 21, 5-((1R,5S)-8-oxa-3-azabicyclo[3.2.1]octane-3-carbonyl)-2-(6-(4-cyclopropyl-4H-1,2,4-triazol-3-yl)pyridin-2-yl)isoindolin-1-one] | < 200 nM |

| Compound | IC50 |
| --- | --- |
| O=C1c2ccccc2CN1c1cccc(-c2nnc3n2[C@H](CO)CC3)n1 [Compound 81, (S)-2-(6-(5-(Hydroxymethyl)-6,7-dihydro-5H-pyrrolo[2,1-c][1,2,4]triazol-3-yl)pyridin-2-yl)isoindolin-1-one] | 1000 to 10000 nM |
| COc1ccc(-c2ccc3c(c2)C(=O)N(c2cccc(-c4nncn4C4CC4)n2)C3)cn1 [Compound 45, 2-(6-(4-cyclopropyl-4H-1,2,4-triazol-3-yl)pyridin-2-yl)-6-(6-methoxypyridin-3-yl)isoindolin-1-one] | < 200 nM |
| O=C(O)c1ccc2c(c1)C(=O)N(c1cccc(-c3nncn3C3CC3)n1)C2 [Compound 73, 2-(6-(4-cyclopropyl-4H-1,2,4-triazol-3-yl)pyridin-2-yl)-3-oxoisoindoline-5-carboxylic acid] | < 200 nM |
| O=C1c2ccccc2CN1c1nccc(-c2nncn2C2CC2)n1 [Compound 86, 2-(4-(4-cyclopropyl-4H-1,2,4-triazol-3-yl)pyrimidin-2-yl)isoindolin-1-one] | 1000 to 10000 nM |
| O=C1c2cc(-n3cc(C4CC4)nn3)ccc2CN1c1cccc(-c2nncn2C2CC2)n1 [Compound 62, 6-(4-cyclopropyl-1H-1,2,3-triazol-1-yl)-2-(6-(4-cyclopropyl-4H-1,2,4-triazol-3-yl)pyridin-2-yl)isoindolin-1-one] | < 200 nM |
| Cn1nccc1-c1ccc2c(c1)CN(c1cccc(-c3nncn3C3CC3)n1)C2=O [Compound 29, 2-(6-(4-cyclopropyl-4H-1,2,4-triazol-3-yl)pyridin-2-yl)-5-(1-methyl-1H-pyrazol-5-yl)isoindolin-1-one] | < 200 nM |
| Cc1ccc(-c2ccc3c(c2)C(=O)N(c2cccc(-c4nncn4C4CC4)n2)C3)cn1 [Compound 42, 2-(6-(4-cyclopropyl-4H-1,2,4-triazol-3-yl)pyridin-2-yl)-6-(6-methylpyridin-3-yl)isoindolin-1-one] | < 200 nM |
| O=C(c1ccc2c(c1)CN(c1cccc(-c3nncn3C3CC3)n1)C2=O)N1CCCC1 [Compound 18, 2-(6-(4-cyclopropyl-4H-1,2,4-triazol-3-yl)pyridin-2-yl)-5-(pyrrolidine-1-carbonyl)isoindolin-1-one] | < 200 nM |
| COC(=O)C1CCN(C(=O)c2ccc3c(c2)CN(c2cccc(-c4nncn4C4CC4)n2)C3=O)CC1 [Compound 23, methyl 1-(2-(6-(4-cyclopropyl-4H-1,2,4-triazol-3-yl)pyridin-2-yl)-1-oxoisoindoline-5-carbonyl)piperidine-4-carboxylate] | < 200 nM |
| O=C1c2cc(-n3ccnc3)ccc2CN1c1cccc(-c2nncn2C2CC2)n1 [Compound 37, 2-(6-(4-cyclopropyl-4H-1,2,4-triazol-3-yl)pyridin-2-yl)-6-(1H-imidazol-1-yl)isoindolin-1-one] | < 200 nM |
| Cc1ncccc1-c1ccc2c(c1)C(=O)N(c1cccc(-c3nncn3C3CC3)n1)C2 [Compound 52, 2-(6-(4-cyclopropyl-4H-1,2,4-triazol-3-yl)pyridin-2-yl)-6-(2-methylpyridin-3-yl)isoindolin-1-one] | < 200 nM |
| O=c1c2ccccc2sn1-c1cccc(-c2nncn2C2CC2)n1 [Compound 89, 2-(6-(4-cyclopropyl-4H-1,2,4-triazol-3-yl)pyridin-2-yl)benzo[d]isothiazol-3(2H)-one] | 1000 to 10000 nM |
| COCCNC(=O)c1ccc2c(c1)CN(c1cccc(-c3nncn3C3CC3)n1)C2=O [Compound 4, 2-(6-(4-cyclopropyl-4H-1,2,4-triazol-3-yl)pyridin-2-yl)-N-(2-methoxyethyl)-1-oxoisoindoline-5-carboxamide] | < 200 nM |
| O=c1c2ccccc2[nH]n1-c1cccc(-c2nncn2C2CC2)n1 [Compound 87, 2-(6-(4-cyclopropyl-4H-1,2,4-triazol-3-yl)pyridin-2-yl)-1,2-dihydro-3H-indazol-3-one] | 1000 to 10000 nM |
| O=C1c2cc(-n3cnc4ccccc43)ccc2CN1c1cccc(-c2nncn2C2CC2)n1 [Compound 38, 6-(1H-Benzo[d]imidazol-1-yl)-2-(6-(4-cyclopropyl-4H-1,2,4-triazol-3-yl)pyridin-2-yl)isoindolin-1-one] | < 200 nM |
| O=C1c2ccc(C(=O)n3cccn3)cc2CN1c1cccc(-c2nncn2C2CC2)n1 [Compound 6, 2-(6-(4-cyclopropyl-4H-1,2,4-triazol-3-yl)pyridin-2-yl)-5-(1H-pyrazole-1-carbonyl)isoindolin-1-one] | < 200 nM |
| CN(C)C(=O)c1ccc2c(c1)C(=O)N(c1cccc(-c3nncn3C3CC3)n1)C2 [Compound 74, 2-(6-(4-cyclopropyl-4H-1,2,4-triazol-3-yl)pyridin-2-yl)-N,N-dimethyl-3-oxoisoindoline-5-carboxamide] | 200 to 1000 nM |
